Test results as given in PMC10261210 (Cancer Chemotherapy and Pharmacology, 2023).

What was measured:
[1] = tested on: relapsed or refractory advanced solid tumors, melanoma; assay: response by investigator assessment (RECIST 1.1); format: in vivo, human
Excerpt: Adverse events were coded using the Medical Dictionary for Regulatory Activities (MedDRA) Version 19.0 and were graded according to the National Cancer Institute (NCI) Common Terminology Criteria (CTC) for adverse events (CTCAE) (Version 4.03). The assessment period for treatment emergent adverse events (TEAEs) was from the first dose of study treatment to 30 days after the last dose of study medication, or until the start of subsequent antineoplastic therapy, whichever occurred first. Following baseline evaluation, response was assessed by investigators every two cycles by computed tomography or magnetic resonance imaging according to Response Evaluation Criteria in Solid Tumors (version 1.1).
The safety population was defined as all patients who received any amount of tovorafenib. The DLT-evaluable population was defined as all patients in the dose escalation phase of the study who either experienced DLT during cycle 1 or who completed at least 75% of the planned doses and had sufficient follow-up data to allow the investigators and sponsor to determine whether DLT had occurred. […] The PK-evaluable population included all patients who had sufficient dosing data and concentration–time data to permit calculation of PK parameters.

[2] = tested on: relapsed or refractory advanced solid tumors, melanoma; parameters: method as in ref 25 = [25]; 25. Medina T Barry E Govinda Raju S Blackman S Gonzalez R Prolonged complete response to the pan-RAF inhibitor DAY101 in a patient with an NRAS -mutated acral lentiginous melanoma Pigment Cell Melanom; conditions: one patient, NRAS-mutated melanoma, cited from earlier work
[3] = parameters: method as in PMID 28082416; conditions: healthy brain and intracranial tumors (pediatric low-grade astrocytoma cells, KIAA1549-BRAF fusion); cited from earlier work
[4] = tested on: patients with relapsed or refractory advanced solid tumors; assay: 3 + 3 dose escalation: DLT, MTD, RP2D; format: in vivo; conditions: for MTD: 28-day cycles; for recommended phase 2 dose (RP2D): human, in vivo
Excerpt: Prior to the initiation of QW dose escalation, the initial cycle length of 22 days was changed to 28 days by protocol amendment to improve clinical feasibility and better facilitate future combination studies. Patients enrolled prior to this protocol amendment in an ongoing Q2D dose escalation cohort continued on the 22-day cycle schedule until the cohort was full and all patients had been evaluated for dose-limiting toxicity (DLT). For both Q2D and QW regimens, dose escalation progressed according to the incidence of DLT in the first treatment cycle (either 22 days or 28 days). […] The MTD was defined as the highest dose level that generated DLT in 0/3 or 1/6 patients. On a case-by-case basis, the sponsor in collaboration with the principal investigators determined if intrapatient dose escalation was appropriate. Patients who had any dose reductions were not permitted to dose escalate.
The starting dose for the Q2D dose escalation phase was 20 mg, which was equivalent to one-tenth of the highest non-severely toxic dose (HNSTD) established in monkey toxicology studies. Dose escalation included planned dose levels of 40 mg, 80 mg, 135 mg, 200 mg, and 280 mg. […] In addition, a seventh Q2D cohort was to enroll sufficient patients (approximately 16) with any advanced solid tumor (excluding lymphoma) to ensure that 12 patients completed protocol-specified dosing and PK assessments scheduled during cycle 1.
The study was initially designed to investigate a Q2D schedule. Subsequently, a protocol amendment introduced planned QW dose escalation cohorts. The alteration in the dosing regimen from Q2D to QW was expected to reduce drug accumulation and increase Cmax while maintaining similar steady-state AUC. In addition, it was hypothesized that the increased Cmax might lead to a higher degree of pathway inhibition for a window of time within the dosing interval, without compromising overall dose density. Planned QW doses to be administered on days 1, 8, 15, and 22 of a 28-day cycle were a starting dose of 400 mg, followed by dose level increases of 200 mg (i.e., doses of 600 mg, 800 mg, and 1000 mg) in each subsequent cohort until the MTD/RP2D was reached.

[5] = dose expansion Cohort 1, BRAF+ Naïve, Q2D n = 16
[6] = dose expansion Cohort 2, BRAF+ Previously treated, Q2D n = 6
[7] = dose expansion Cohort 3, NRAS+ Naïve, Q2D n = 14
[8] = dose expansion Cohort 4, NRAS + Previously treated, Q2D n = 1
[9] = dose expansion Cohort 5, BRAF/NRAS WT Naïve, Q2D n = 6
[10] = dose expansion Cohort 6, BRAF/NRAS WT Previously, Q2D n = 9
[11] = dose expansion Cohort 9, NRAS+ Naïve, QW n = 17
[12] = dose expansion, Q2D n=68 (melanoma cohorts, PK cohort, unknown)

C[C@@H](NC(=O)c1ncnc(N)c1Cl)c1ncc(C(=O)Nc2cc(C(F)(F)F)c(Cl)cn2)s1 [tovorafenib]
median PFS ([1]; BRAF mutation-positive, RAF and MEK inhibitor-naïve cohort, 95% CI 1.9–14.3): 5.7 months | sustained PFS in an individual patient ([1]; BRAF mutation-positive, RAF and MEK inhibitor-naïve cohort, in response and on treatment at data cutoff): 45 months | duration of stable disease in one patient ([1]; NRAS-mutated melanoma, cohort 7): 42 months | best response of stable disease ([1]; Q2D dose escalation, 5 of 22 evaluable patients): 23% | responses ([1]; Q2D dose escalation, 22 evaluable patients): no responses | Objective response rate ([1]; Q2D expansion phase, 10 of 68 evaluable patients, 95% CI 7–25): 15% | median duration of response ([1]; Q2D expansion, 68 evaluable patients): 6.0 months | median progression-free survival (PFS) ([1]; Q2D expansion, 68 evaluable patients, 95% CI 1.8–3.6): 1.9 months | partial responses ([1]; QW dose escalation, 2 in 14 evaluable patients (endometrial cancer 600 mg, thyroid cancer 800 mg)): 14% | best response of stable disease ([1]; QW dose expansion, 9 of 17 evaluable patients): 53% | responses ([1]; QW dose expansion, 17 evaluable patients, NRAS mutation-positive melanoma naïve to RAF and MEK inhibitors): no responses | responses (partial) ([1]; cohort 1, BRAF mutation-positive melanoma, RAF and MEK inhibitor-naïve, Q2D, 8 of 16): 50% | responses ([1]; cohort 2, BRAF mutation-positive, RAF and MEK inhibitor-previously treated, Q2D, 1 of 6): 17% | responses ([1]; cohort 3, NRAS mutation-positive, RAF and MEK inhibitor-naïve, Q2D, 1 of 14): 7% | Best overall response: Complete response ([1]; dose escalation, Q2D n = 22): 0 n (%) | Best overall response: Partial response ([1]; dose escalation, Q2D n = 22): 0 n (%) | Best overall response: Progressive disease ([1]; dose escalation, Q2D n = 22): 17 (77) n (%) | Best overall response: Stable disease ([1]; dose escalation, Q2D n = 22): 5 (23) n (%) | Objective response rate ([1]; dose escalation, Q2D n = 22): 0 n (%) | Best overall response: Complete response ([1]; dose escalation, QW n = 14): 0 n (%) | Best overall response: Partial response ([1]; dose escalation, QW n = 14): 2 (14) n (%) | Best overall response: Progressive disease ([1]; dose escalation, QW n = 14): 8 (57) n (%) | Best overall response: Stable disease ([1]; dose escalation, QW n = 14): 4 (29) n (%) | Objective response rate ([1]; dose escalation, QW n = 14): 2 (14) n (%) | Best overall response: Complete response ([1]; dose escalation, Total n=36): 0 n (%) | Best overall response: Partial response ([1]; dose escalation, Total n=36): 2 (6) n (%) | Best overall response: Progressive disease ([1]; dose escalation, Total n=36): 25 (69) n (%) | Best overall response: Stable disease ([1]; dose escalation, Total n=36): 9 (25) n (%) | Objective response rate ([1]; dose escalation, Total n=36): 2 (6) n (%) | Best overall response: Complete response [1, 5]: 0 n (%) | Best overall response: Partial response [1, 5]: 8 (50) n (%) | Best overall response: Progressive disease [1, 5]: 6 (38) n (%) | Best overall response: Stable disease [1, 5]: 2 (13) n (%) | Objective response rate [1, 5]: 8 (50) n (%) | Best overall response: Complete response [1, 6]: 0 n (%) | Best overall response: Partial response [1, 6]: 1 (17) n (%) | Best overall response: Progressive disease [1, 6]: 2 (33) n (%) | Best overall response: Stable disease [1, 6]: 3 (50) n (%) | Objective response rate [1, 6]: 1 (17) n (%) | Best overall response: Complete response [1, 7]: 0 n (%) | Best overall response: Partial response [1, 7]: 1 (7) n (%) | Best overall response: Progressive disease [1, 7]: 9 (64) n (%) | Best overall response: Stable disease [1, 7]: 4 (29) n (%) | Objective response rate [1, 7]: 1 (7) n (%) | Best overall response: Complete response [1, 8]: 0 n (%) | Best overall response: Partial response [1, 8]: 0 n (%) | Best overall response: Progressive disease [1, 8]: 1 (100) n (%) | Best overall response: Stable disease [1, 8]: 0 n (%) | Objective response rate [1, 8]: 0 n (%) | Best overall response: Complete response [1, 9]: 0 n (%) | Best overall response: Partial response [1, 9]: 0 n (%) | Best overall response: Progressive disease [1, 9]: 5 (83) n (%) | Best overall response: Stable disease [1, 9]: 1 (17) n (%) | Objective response rate [1, 9]: 0 n (%) | Best overall response: Complete response [1, 10]: 0 n (%) | Best overall response: Partial response [1, 10]: 0 n (%) | Best overall response: Progressive disease [1, 10]: 6 (67) n (%) | Best overall response: Stable disease [1, 10]: 3 (33) n (%) | Objective response rate [1, 10]: 0 n (%) | Best overall response: Complete response [1, 11]: 0 n (%) | Best overall response: Partial response [1, 11]: 0 n (%) | Best overall response: Progressive disease [1, 11]: 8 (47) n (%) | Best overall response: Stable disease [1, 11]: 9 (53) n (%) | Objective response rate [1, 11]: 0 n (%) | Best overall response: Complete response [1, 12]: 0 n (%) | Best overall response: Partial response [1, 12]: 10 (15) n (%) | Best overall response: Progressive disease [1, 12]: 37 (54) n (%) | Best overall response: Stable disease [1, 12]: 21 (31) n (%) | Objective response rate [1, 12]: 10 (15) n (%) | Best overall response: Complete response ([1]; dose expansion, QW n=17): 0 n (%) | Best overall response: Partial response ([1]; dose expansion, QW n=17): 0 n (%) | Best overall response: Progressive disease ([1]; dose expansion, QW n=17): 8 (47) n (%) | Best overall response: Stable disease ([1]; dose expansion, QW n=17): 9 (53) n (%) | Objective response rate ([1]; dose expansion, QW n=17): 0 n (%) | Best overall response: Complete response ([1]; dose expansion, Total n=85): 0 n (%) | Best overall response: Partial response ([1]; dose expansion, Total n=85): 10 (12) n (%) | Best overall response: Progressive disease ([1]; dose expansion, Total n=85): 45 (53) n (%) | Best overall response: Stable disease ([1]; dose expansion, Total n=85): 30 (35) n (%) | Objective response rate ([1]; dose expansion, Total n=85): 10 (12) n (%) | treatment time until complete response was reported ([2]; single patient IND after the study): 7 months | duration for which complete response has been sustained ([2]; single patient IND, continued treatment): 8 years | blood–brain barrier penetration [3]: good blood–brain barrier penetration | MTD ([4]; Q2D): 200 mg | MTD ([4]; QW): 600 mg | recommended phase 2 dose (RP2D) [4]: 200 mg | recommended phase 2 dose (RP2D) ([4]; 28 days): 600 mg
